Experimental data: the supplement of paper PMC10307832

How the values were obtained:
Assay in all cases: relative viability (nuclei count vs DMSO), 5 days (fraction); higher = more cells survive
AT9283 + Linsitinib = compound: O=C(Nc1c[nH]nc1-c1nc2ccc(CN3CCOCC3)cc2[nH]1)NC1CC1 [AT9283] + C[C@]1(O)C[C@@H](c2nc(-c3ccc4ccc(-c5ccccc5)nc4c3)c3c(N)nccn32)C1 [Linsitinib] (partner 1 µM)
How it was run: (§1)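 Cells from lung cancer lines were seeded into 1536-well plates and, one day later, dosed by pin tool. Treatments were either a single drug or a fixed dose of an anchor drug with five library-drug doses (not always all listed) in √10 steps. After 5 days, nuclei were stained in a one-step fixation (final 0.05% Triton X-100, 1% formaldehyde, 1 ug/ml Hoechst) and counted on 4× images, and relative viability is the treated-to-vehicle nuclei ratio, as the median of duplicate plates.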

AT9283 + Pemetrexed = compound: O=C(Nc1c[nH]nc1-c1nc2ccc(CN3CCOCC3)cc2[nH]1)NC1CC1 [AT9283] + Nc1nc2[nH]cc(CCc3ccc(C(=O)N[C@@H](CCC(=O)O)C(=O)O)cc3)c2c(=O)[nH]1 [Pemetrexed] (partner 0.2 µM)
How it was run: as §1

Erlotinib + Tozasertib = compound: C#Cc1cccc(Nc2ncnc3cc(OCCOC)c(OCCOC)cc23)c1 [Erlotinib] + Cc1cc(Nc2cc(N3CCN(C)CC3)nc(Sc3ccc(NC(=O)C4CC4)cc3)n2)n[nH]1 [Tozasertib] (partner 0.1 µM)
How it was run: as §1

Erlotinib + Bortezomib = compound: C#Cc1cccc(Nc2ncnc3cc(OCCOC)c(OCCOC)cc23)c1 [Erlotinib] + CC(C)C[C@H](NC(=O)[C@H](Cc1ccccc1)NC(=O)c1cnccn1)B(O)O [Bortezomib] (partner 0.002 µM)
How it was run: as §1

AT9283 + Olaparib = compound: O=C(Nc1c[nH]nc1-c1nc2ccc(CN3CCOCC3)cc2[nH]1)NC1CC1 [AT9283] + O=C(c1cc(Cc2n[nH]c(=O)c3ccccc23)ccc1F)N1CCN(C(=O)C2CC2)CC1 [Olaparib] (partner 8 µM)
How it was run: as §1

Cell Line	relative viability (AT9283 + Linsitinib; first compound 0.003 µM)	relative viability (AT9283 + Linsitinib; first compound 0.03 µM)	relative viability (AT9283 + Linsitinib; first compound 0.09487 µM)	relative viability (AT9283 + Linsitinib; first compound 0.3 µM)	relative viability (AT9283 + Pemetrexed; first compound 0.003 µM)	relative viability (AT9283 + Pemetrexed; first compound 0.03 µM)	relative viability (AT9283 + Pemetrexed; first compound 0.09487 µM)	relative viability (AT9283 + Pemetrexed; first compound 0.3 µM)	relative viability (Erlotinib + Tozasertib; first compound 0.02 µM)	relative viability (Erlotinib + Tozasertib; first compound 0.2 µM)	relative viability (Erlotinib + Tozasertib; first compound 0.6325 µM)	relative viability (Erlotinib + Tozasertib; first compound 2 µM)	relative viability (Erlotinib + Bortezomib; first compound 0.02 µM)	relative viability (Erlotinib + Bortezomib; first compound 0.2 µM)	relative viability (Erlotinib + Bortezomib; first compound 0.6325 µM)	relative viability (Erlotinib + Bortezomib; first compound 2 µM)	relative viability (AT9283 + Olaparib; first compound 0.003 µM)	relative viability (AT9283 + Olaparib; first compound 0.03 µM)	relative viability (AT9283 + Olaparib; first compound 0.09487 µM)	relative viability (AT9283 + Olaparib; first compound 0.3 µM)
NCI-H2009	1.21	0.704	0.315	0.323	1.03	0.983	0.713	0.243	0.751	0.746	0.834	0.62	1.06	1.03	1.19	1.01	0.716	0.636	0.458	0.0682
NCI-H2228	0.823	0.632	0.17	0.175	0.337	0.244	0.181	0.16	0.237	0.164	0.169	0.142	1.06	1.03	1.02	0.8	0.675	0.455	0.228	0.153
NCI-H460	0.761	0.0766	0.0186	0.0256	0.0566	0.0638	0.0674	0.0587	0.44	0.191	0.109	0.0585	1.09	1.12	1.52	1.09	0.479	0.307	0.127	0.113
UMC-11	0.849	0.138	0.14	0.168	0.768	0.158	0.196	0.193	0.208	0.189	0.204	0.198	0.934	0.837	0.738	0.586	0.712	0.218	0.213	0.23
NCI-H1437	1.06	0.691	0.181	0.158	0.306	0.298	0.264	0.225	0.406	0.403	0.448	0.357	0.482	0.499	0.57	0.393	0.616	0.549	0.3	0.277
HCC-366	0.71	0.319	0.0197	0.0206	0.169	0.2	0.101	0.067	0.0918	0.0854	0.0664	0.039		1.08	1.1	1.06	0.362	0.262	0.113	0.0721
NCI-H2087	1.08	0.542	0.339	0.245	0.664	0.586	0.261	0.183	0.259	0.279	0.191	0.132	1	1.12	0.804	0.768	0.71	0.416	0.194	0.154
